Test results as given in PMC10489980, “Design of Potent and Salt-Insensitive Antimicrobial Branched Peptides” (Polymers, 2023).
Where two headings read alike, the source gives them in different places. Residues, ends and D or L forms follow the SMILES beside them.

What was measured:
Assay type in all cases: cell-based
[1] = tested on: Candida albicans ATCC 37092
Source text: (§1) Ten organisms obtained from the American Type Culture Collection (ATCC; Rockville, MD) were used for antimicrobial assays. Four Gram-negative bacteria included Escherichia coli ATCC 25922, Pseudomonas aeruginosa ATCC 27853, Klebsiella oxytoca ATCC 49131, and Proteus vulgaris ATCC 49132. The three Gram-positive bacteria were Staphylococcus aureus 29213, Micrococcus luteus ATCC 49,732, and Enterococcus faecalis ATCC 29212. The three fungi were Candida albicans ATCC 37092, Candida kefyr ATCC 37095, and Candida tropicalis ATCC 37097. The clinical isolates were obtained from Singapore General Hospital (SGH). They are Enterococcus faecium, Staphylococcus aureus, Klebsiella pneumoniae, Acinetobacter baumannii, Pseudomonas aeruginosa, and Enterobacter species. The strains were incubated in trypticase soy broth (TSB), which was prepared in double distilled water and autoclaved for sterilization. TSB was purchased from Becton-Dickinson (Cockeysville, MD, USA).
(§2) Antimicrobial Assays. A sensitive and reproducible two-stage radial diffusion antimicrobial assay of Lehrer et al. was employed. A 1–4 × 10^6 colony-forming unit/mL of the test organism was mixed with 10 mL of molten underlay gel solution and poured into Petri dishes to form a uniform layer. The gel solution consisted of 10 mM sodium phosphate buffer, 0.03% TSB, and 0.02% Tween-20, with the addition of 100 mM NaCl in the case of high-salt conditions. Upon gel solidification, gel wells were made by a 3-mm diameter template in an evenly spaced array. A 5 µL aliquot of a serial half-log dilution of test peptides at seven concentrations was added to each well after removal of gel plugs. The dishes were incubated at 37 °C for 3 h to allow peptide diffusion into the underlay gels. Gels were overlaid with 10 mL of 1% agarose in 6% TSB (wt/vol). After additional incubation at 37 °C for 16–24 h, the diameter of the clear zone surrounding the wells (colony-free) was measured under a microscope. Antimicrobial activities were expressed in units (0.1 mm = 1 unit), and the MICs (in µM) were determined from the x-intercepts of the dose-response curves. Experiments were performed in triplicates.

[2] = tested on: Pseudomonas aeruginosa ATCC 27853
Source text: as §1, §2

[3] = tested on: Staphylococcus aureus 29213
Source text: as §1, §2

[4] = tested on: Proteus vulgaris ATCC 49132
Source text: as §1, §2

[5] = tested on: Candida kefyr ATCC 37095
Source text: as §1, §2

[6] = tested on: Candida tropicalis ATCC 37097
Source text: as §1, §2

[7] = tested on: Escherichia coli ATCC 25922
Source text: as §1, §2

[8] = tested on: Micrococcus luteus ATCC 49,732
Source text: as §1, §2

[9] = tested on: Enterococcus faecalis ATCC 29212
Source text: as §1, §2

[10] = tested on: Klebsiella oxytoca ATCC 49131
Source text: as §1, §2

[11] = ATCC 37092, radial diffusion assay, high-salt (100 mM NaCl), triplicates
[12] = ATCC 37092, radial diffusion assay, low-salt (without NaCl), triplicates
[13] = ATCC 27853, radial diffusion assay, high-salt (100 mM NaCl), triplicates
[14] = ATCC 27853, radial diffusion assay, low-salt (without NaCl), triplicates
[15] = strain 29213, radial diffusion assay, high-salt (100 mM NaCl), triplicates
[16] = strain 29213, radial diffusion assay, low-salt (without NaCl), triplicates
[17] = ATCC 49132, radial diffusion assay, high-salt (100 mM NaCl), triplicates
[18] = ATCC 49132, radial diffusion assay, low-salt (without NaCl), triplicates
[19] = ATCC 37095, radial diffusion assay, high-salt (100 mM NaCl), triplicates
[20] = ATCC 37095, radial diffusion assay, low-salt (without NaCl), triplicates
[21] = ATCC 37097, radial diffusion assay, high-salt (100 mM NaCl), triplicates
[22] = ATCC 37097, radial diffusion assay, low-salt (without NaCl), triplicates
[23] = ATCC 25922, two-stage radial diffusion assay, high-salt (underlay gel 10 mM sodium phosphate, 0.03% TSB, 0.02% Tween-20, with 100 mM NaCl), 37 °C, x-intercept of dose-response curve, triplicates
[24] = ATCC 25922, two-stage radial diffusion assay, low-salt (underlay gel 10 mM sodium phosphate, 0.03% TSB, 0.02% Tween-20, without NaCl), 37 °C, x-intercept of dose-response curve, triplicates
[25] = ATCC 49,732, radial diffusion assay, high-salt (100 mM NaCl), triplicates
[26] = ATCC 49,732, radial diffusion assay, low-salt (without NaCl), triplicates
[27] = ATCC 29212, radial diffusion assay, high-salt (100 mM NaCl), triplicates
[28] = ATCC 29212, radial diffusion assay, low-salt (without NaCl), triplicates
[29] = ATCC 49131, radial diffusion assay, high-salt (100 mM NaCl), triplicates
[30] = ATCC 49131, radial diffusion assay, low-salt (without NaCl), triplicates

In the case of `CC(C)C[C@H](NC(=O)[C@@H](N)CCCNC(=N)N)C(=O)N[C@@H](Cc1ccc(O)cc1)C(=O)N[C@@H](CCCNC(=N)N)C(=O)NCCCC[C@H](NC(=O)[C@H](CCCNC(=N)N)NC(=O)[C@H](Cc1ccc(O)cc1)NC(=O)[C@H](CC(C)C)NC(=O)[C@@H](N)CCCNC(=N)N)C(=O)NCCCC[C@H](NC(=O)[C@H](CCCNC(=N)N)NC(=O)[C@H](Cc1ccc(O)cc1)NC(=O)[C@H](CC(C)C)NC(=O)[C@@H](N)CCCNC(=N)N)C(=O)NCCCC[C@H](NC(=O)[C@H](CCCNC(=N)N)NC(=O)[C@H](Cc1ccc(O)cc1)NC(=O)[C@H](CC(C)C)NC(=O)[C@@H](N)CCCNC(=N)N)C(=O)NCCCC[C@H](NC(=O)[C@H](CCCNC(=N)N)NC(=O)[C@H](Cc1ccc(O)cc1)NC(=O)[C@H](CC(C)C)NC(=O)[C@@H](N)CCCNC(=N)N)C(N)=O` [iK5R] (HELM PEPTIDE1{R.L.Y.R.K}|PEPTIDE2{R.L.Y.R}|PEPTIDE3{R.L.Y.R.K}|PEPTIDE4{R.L.Y.R.K}|PEPTIDE5{R.L.Y.R.K.[am]}$PEPTIDE1,PEPTIDE2,5:R3-4:R2|PEPTIDE1,PEPTIDE3,5:R2-5:R3|PEPTIDE3,PEPTIDE4,5:R2-5:R3|PEPTIDE4,PEPTIDE5,5:R2-5:R3$$$V2.0; N-terminus assumed), the “MIC, C. albicans, H-Salt” value ([1]; ATCC 37092, 3 h) is reported as 0.8 µM, the “MIC, C. albicans, L-Salt” value ([1]; ATCC 37092, 3 h) is reported as 0.8 µM and the “MIC, P. aeruginosa, H-Salt” value ([2]; ATCC 27853, 3 h) is reported as 0.8 µM. The “MIC, P. aeruginosa, L-Salt” value ([2]; ATCC 27853, 3 h) was 0.6 µM, the “MIC, S. aureus, H-Salt” value ([3]; 29213, 3 h) was 0.7 µM and the “MIC, S. aureus, L-Salt” value ([3]; 29213, 3 h) was 0.8 µM. The “MIC, P. vulgaris, H-Salt” value ([4]; ATCC 49132, 3 h) was 0.7 µM, the “MIC, P. vulgaris, L-Salt” value ([4]; ATCC 49132, 3 h) was 0.6 µM and the “MIC, C. kefyr, H-Salt” value ([5]; ATCC 37095, 3 h) was 0.7 µM. For the same molecule, the “MIC, C. kefyr, L-Salt” value ([5]; ATCC 37095, 3 h) was 0.6 µM, the “MIC, C. tropicalis, H-Salt” value ([6]; ATCC 37097, 3 h) was 0.9 µM and the “MIC, C. tropicalis, L-Salt” value ([6]; ATCC 37097, 3 h) was 1.2 µM. For the same molecule, the “MIC, E. coli, H-Salt” value ([7]; ATCC 25922, 3 h) was 0.5 µM, the “MIC, E. coli, L-Salt” value ([7]; ATCC 25922, 3 h) was 0.5 µM and the “MIC, M. luteus, H-Salt” value ([8]; ATCC 49, 3 h) was 0.6 µM. The “MIC, M. luteus, L-Salt” value ([8]; ATCC 49, 3 h) was 1.0 µM, the “MIC, E. faecalis, H-Salt” value ([9]; ATCC 29212, 3 h) was 1.6 µM and the “MIC, E. faecalis, L-Salt” value ([9]; ATCC 29212, 3 h) was 0.8 µM. The “MIC, K. oxytoca, H-Salt” value ([10]; ATCC 49131, 3 h) was 1.3 µM and the “MIC, K. oxytoca, L-Salt” value ([10]; ATCC 49131, 3 h) was 0.5 µM.
In the case of `CC(=O)NCCCC[C@H](NC(=O)[C@H](CCCNC(=N)N)NC(=O)[C@H](Cc1ccc(O)cc1)NC(=O)[C@H](CC(C)C)NC(=O)[C@@H](N)CCCNC(=N)N)C(=O)NCCCC[C@H](NC(=O)[C@H](CCCNC(=N)N)NC(=O)[C@H](Cc1ccc(O)cc1)NC(=O)[C@H](CC(C)C)NC(=O)[C@@H](N)CCCNC(=N)N)C(=O)NCCCC[C@H](NC(=O)[C@H](CCCNC(=N)N)NC(=O)[C@H](Cc1ccc(O)cc1)NC(=O)[C@H](CC(C)C)NC(=O)[C@@H](N)CCCNC(=N)N)C(=O)NCCCC[C@H](NC(=O)[C@H](CCCNC(=N)N)NC(=O)[C@H](Cc1ccc(O)cc1)NC(=O)[C@H](CC(C)C)NC(=O)[C@@H](N)CCCNC(=N)N)C(N)=O` [iK4R] (HELM PEPTIDE1{R.L.Y.R.K}|PEPTIDE2{[ac]}|PEPTIDE3{R.L.Y.R.K}|PEPTIDE4{R.L.Y.R.K}|PEPTIDE5{R.L.Y.R.K.[am]}$PEPTIDE1,PEPTIDE2,5:R3-1:R2|PEPTIDE1,PEPTIDE3,5:R2-5:R3|PEPTIDE3,PEPTIDE4,5:R2-5:R3|PEPTIDE4,PEPTIDE5,5:R2-5:R3$$$V2.0), the “MIC, C. albicans, H-Salt” value [1, 11] is reported as 0.9 µM, the “MIC, C. albicans, L-Salt” value [1, 12] is reported as 0.8 µM and the “MIC, P. aeruginosa, H-Salt” value [2, 13] is reported as 0.7 µM. For the same molecule, the “MIC, P. aeruginosa, L-Salt” value [2, 14] was 0.5 µM, the “MIC, S. aureus, H-Salt” value [3, 15] was 0.6 µM and the “MIC, S. aureus, L-Salt” value [3, 16] was 0.7 µM. The “MIC, P. vulgaris, H-Salt” value [4, 17] was 0.7 µM, the “MIC, P. vulgaris, L-Salt” value [4, 18] was 0.8 µM and the “MIC, C. kefyr, H-Salt” value [5, 19] was 0.8 µM. The “MIC, C. kefyr, L-Salt” value [5, 20] was 0.8 µM, the “MIC, C. tropicalis, H-Salt” value [6, 21] was 1.3 µM and the “MIC, C. tropicalis, L-Salt” value [6, 22] was 0.5 µM. The “MIC, E. coli, H-Salt” value [7, 23] was 0.4 µM, the “MIC, E. coli, L-Salt” value [7, 24] was 0.4 µM and the “MIC, M. luteus, H-Salt” value [8, 25] was 0.8 µM. For the same molecule, the “MIC, M. luteus, L-Salt” value [8, 26] was 0.9 µM, the “MIC, E. faecalis, H-Salt” value [9, 27] was 1.4 µM and the “MIC, E. faecalis, L-Salt” value [9, 28] was 0.8 µM. The “MIC, K. oxytoca, H-Salt” value [10, 29] was 0.7 µM and the “MIC, K. oxytoca, L-Salt” value [10, 30] was 0.5 µM.
`CC(=O)NCCC[C@H](NC(=O)[C@H](CCCNC(=N)N)NC(=O)[C@H](Cc1ccc(O)cc1)NC(=O)[C@H](CC(C)C)NC(=O)[C@@H](N)CCCNC(=N)N)C(=O)NCCC[C@H](NC(=O)[C@H](CCCNC(=N)N)NC(=O)[C@H](Cc1ccc(O)cc1)NC(=O)[C@H](CC(C)C)NC(=O)[C@@H](N)CCCNC(=N)N)C(=O)NCCC[C@H](NC(=O)[C@H](CCCNC(=N)N)NC(=O)[C@H](Cc1ccc(O)cc1)NC(=O)[C@H](CC(C)C)NC(=O)[C@@H](N)CCCNC(=N)N)C(=O)NCCC[C@H](NC(=O)[C@H](CCCNC(=N)N)NC(=O)[C@H](Cc1ccc(O)cc1)NC(=O)[C@H](CC(C)C)NC(=O)[C@@H](N)CCCNC(=N)N)C(N)=O` [iO4R] (HELM PEPTIDE1{R.L.Y.R.[Orn]}|PEPTIDE2{[ac]}|PEPTIDE3{R.L.Y.R.[Orn]}|PEPTIDE4{R.L.Y.R.[Orn]}|PEPTIDE5{R.L.Y.R.[Orn].[am]}$PEPTIDE1,PEPTIDE2,5:R3-1:R2|PEPTIDE1,PEPTIDE3,5:R2-5:R3|PEPTIDE3,PEPTIDE4,5:R2-5:R3|PEPTIDE4,PEPTIDE5,5:R2-5:R3$$$V2.0) was tested, and the “MIC, C. albicans, H-Salt” value [1, 11] was 1.4 µM, the “MIC, C. albicans, L-Salt” value [1, 12] was 1.3 µM and the “MIC, P. aeruginosa, H-Salt” value [2, 13] was 4.0 µM. For the same molecule, the “MIC, P. aeruginosa, L-Salt” value [2, 14] was 4.4 µM, the “MIC, S. aureus, H-Salt” value [3, 15] was 4.8 µM and the “MIC, S. aureus, L-Salt” value [3, 16] was 6.7 µM. For the same molecule, the “MIC, P. vulgaris, H-Salt” value [4, 17] was 23.2 µM, the “MIC, P. vulgaris, L-Salt” value [4, 18] was 4.7 µM and the “MIC, C. kefyr, H-Salt” value [5, 19] was 0.8 µM. For the same molecule, the “MIC, C. kefyr, L-Salt” value [5, 20] was 0.8 µM, the “MIC, C. tropicalis, H-Salt” value [6, 21] was 0.8 µM and the “MIC, C. tropicalis, L-Salt” value [6, 22] was 1.4 µM. For the same molecule, the “MIC, E. coli, H-Salt” value [7, 23] was 4.4 µM, the “MIC, E. coli, L-Salt” value [7, 24] was 0.9 µM and the “MIC, M. luteus, H-Salt” value [8, 25] was 2.0 µM. For the same molecule, the “MIC, M. luteus, L-Salt” value [8, 26] was 2.1 µM, the “MIC, E. faecalis, H-Salt” value [9, 27] was over 500 µM and the “MIC, E. faecalis, L-Salt” value [9, 28] was 5.4 µM. For the same molecule, the “MIC, K. oxytoca, H-Salt” value [10, 29] was 6.8 µM and the “MIC, K. oxytoca, L-Salt” value [10, 30] was 1.6 µM.
